Assay results taken from patent publication US20100022611A1 (THE UNIVERSITY COURT OF THE UNIVERSITY OF ABERDEEN, priority 2007, published 2010).
pKi: −log10 of the molar value. Like-named read-outs stand apart in the source and are kept apart here.

Legend:
[1] = target: T1, cannabinoid CB1 receptor (Mus musculus, UniProt P47746); assay: Mouse brain competition binding assay, [3H]CP55940 displacement; conditions: for Ki: mouse brain membranes, [3H]CP55940 0.7 nM, read-out: Ki (nM) [affinity] Mouse Brain [3H]CP55940 Displacement
T1 construct: Whole brains from eight adult male mice were dissected and suspended in centrifugation buffer; from tissue; host or cells: mouse whole brain membranes
Method: The competition binding assay is a […] radioligand binding assay, which determines the affinity of a given compound for a specific receptor site, in this instance, the cannabinoid CB1 receptor. Mouse brain membranes were the chosen tissue due to their high expression of CB1 receptors.
Whole brains from eight adult male mice were dissected and suspended in centrifugation buffer. The brains were then homogenised with a Polytron Homogeniser prior to centrifugation at 1,600 RCF, 4° C. for 10 minutes. Centrifugation produced a supernatant, which was collected, and then the remaining pellet was re-suspended in centrifugation buffer and centrifuged as before. All supernatants were combined, and centrifuged at 28,000 RCF, 4° C. for a further 20 minutes. The supernatant was then discarded and the pellet re-suspended in Buffer A before incubation for 10 minutes at 37° C. The membrane suspension was then centrifuged at RCF 23,000, 4° C. for 20 minutes. The pellet was then re-suspended in Buffer A and incubated for 40 minutes at room temperature. The suspension was then centrifuged for 15 minutes at RCF 11,000, 4° C., and the pellet was then re-suspended in Buffer B. Finally a Protein Assay was carried out to determine the protein content of the mouse membrane preparation. The membrane samples were then made up into 1 mL aliquots of 1 mg/mL protein concentration and stored at −80° C. The samples were removed and defrosted when they were required.
The competition binding assay utilizes standard binding buffer, comprising:
10 μL of 1 mM stock of CP55940 in DMSO was added to 990 μL of binding buffer.
This was essential to obtain a value for specific binding, which is defined as the difference between the binding that occurs in the presence and absence of […] unlabelled CP55940.
(§1) Buffer; [^3H] […] The competition assay was initiated by the addition of the membranes. The assay was incubated at 37° C. in a water bath for 1 hour. The assay was terminated by addition of ice-cold Tris/BSA buffer and rapid vacuum filtration using a 24-well Brandel (cell harvester) and glass-fibre filters that had been soaked in Tris/BSA buffer at 4° C. for 24 hours. Each well was washed 6 times with 1.2 mL of Tris/BSA buffer. The filters were then oven dried for 1 hour. The sections of filter papers were then separated and placed in individual vials, to which 5 mL of scintillation fluid was added. The filter papers were soaked in the scintillation fluid for 1 hour before the radioactivity in each vial was quantified by liquid scintillation spectrometry.
Data were fitted to a one-site competition curve using GraphPad Prism 4.

[2] = target: T2, CB1 receptor (Mus musculus, UniProt P47746); assay: [35S]GTPγS binding, compound alone (Table 2, Function); type: biochemical; parameters: from tissue
Source text: (§2) The [^35S] GTPγS binding assay is simply a means of measuring G protein activation following agonist occupation of a GPCR. The significance of replacing endogenous GTP with radiolabeled [^35S] GTPγS is two-fold. […] GTPγS. Secondly, as with any radiolabelling, the aim is to allow quantitative analysis of a selected molecular species, in this case the degree of agonist binding can be gauged by measuring the subsequent levels of radioactivity in the desired tissue.
(§3) A vehicle control was an essential aspect of the experiment. […] The vehicle is made up of 10 μL of DMSO and 990 μL of binding buffer, resulting in the assay containing 0.1% vehicle.
as §1, with “[^35S]” for “[^3H]”, “GTPγS binding” for “competition”, “[^35S] GTPγS.” for “membranes.”, “have” for “had”
(§4) The data was fitted to a sigmoidal concentration-response curve using GraphPad Prism 4. Significance was defined by a one-sample t-test (GraphPad Prism 4), which compared mean % stimulation values S.E.M. to the basal binding level, 0.0% stimulation.

[3] = target: CB1 receptor (Homo sapiens, UniProt P21554); assay: [35S]GTPγS binding, compound alone, 24 hours FBS-starved CB1 CHO cells; type: biochemical; conditions: 1 nM to 10 μM
Source text: as §2, §3
as §1, with “[^35S]” for “[^3H]”, “GTPγS binding” for “competition”, “[^35S] GTPγS.” for “membranes.”, “have” for “had”
as §4
The vertical lines indicate S.E.M. (standard error of the mean) (*= P<0.05, **= P<0.01, ***= P<0.001, one-sample t-test) (n=4).

[4] = target: T2, CB1 receptor; assay: [35S]GTPγS binding assay in mouse brain membranes, antagonism of CP55940; type: biochemical; parameters: Whole brains from eight adult male mice were dissected and suspended in centrifugation buffer; from tissue; host or cells: mouse whole brain membranes
Source text: as §2, §3
as §1, with “[^35S]” for “[^3H]”, “GTPγS binding” for “competition”, “[^35S] GTPγS.” for “membranes.”, “have” for “had”
as §4

[5] = target: T2, CB1 receptor; assay: Electrically-evoked contractions of mouse isolated vas deferens, antagonism of CP55940; parameters: The isolated vas deferens was then removed from the mouse by cutting through its prostatic end; from tissue; host or cells: isolated vas deferens of male albino MF1 mice
Source text: (§5) The vas deferens (or ductus deferens) is a muscular tube, approximately 3 mm in diameter and 30 cm in length, connecting the left and right epididymis to the ejaculatory ducts in order to move sperm. It is bound by connective tissue with an ample supply of blood vessels, nerves, and lymphatics. This in vitro bioassay exploits the expression of CB1 receptors on the presynaptic nerve terminals of this tubular structure.
(§6) The animals used in the study were male albino MF1 mice bred and were housed six to eight per-cage and were kept in a temperature-controlled room which was maintained on a fixed light-dark cycle. All mice were given free access to food and water. Subjects used in the study were a minimum of four weeks of age. Each mouse was stunned by striking the back of the head and killed by dislocation of the neck (cervical vertebrae). Following the killing, the mouse body weight was determined. A transverse incision, approximately of 1.5 cm, was made in the skin with the aid of dissection scissors. A similar-sized transverse incision was made through the lower abdominal wall. […] This was used to identify the vas deferens, which is attached to the testis via the epididymis. Gripping the epididymis with forceps, the vas deferens was cut free first from the testis and then from the connective tissue. The isolated vas deferens was then removed from the mouse by cutting through its prostatic end. This procedure was repeated on the right testis. It was important that throughout the latter two stages of this dissection, care was taken to ensure the vas deferens was not overstretched. In addition to their vas deferens, these animals were euthanized for use of their brain and small intestine by fellow researchers in different research fields. This minimisation of the number of animals euthanized complied with the European Community guidelines.
(§7) During transit, the two isolated vas deferens from each mice were kept moist in a glass vial filled with warm modified Mg^2+-free Krebs' solution. Before setting the tissue up in an organ bath, further removal of connective tissue, mesentery, and the epididymis was performed; cotton thread was tied securely to both end of the vas deferens.
(§8) The one-tailed thread was attached to the Pioden UF1 isometric transducer (Harvard Apparatus) and the two-tailed thread hung out of the bottom of the bath. The latter served as an anchor point for applying tension. […] Contractile activity was recorded using the isometric transducer and the output monitored by a computer connected to the data recording and analysis system (MacLab or PowerLab). The tissues were then ready for stimulation. […]

[6] = target: T2, CB1 receptor; assay: Electrically-evoked contractions of isolated mouse vas deferens, compound alone; parameters: The isolated vas deferens was then removed from the mouse by cutting through its prostatic end; from tissue; host or cells: isolated vas deferens of male albino MF1 mice; conditions: 1 μM, tested alone
Source text: as §5, §6, §7, §8

[7] = patients, clinical trials; cited from earlier work

T2 sequence (P47746 whole entry): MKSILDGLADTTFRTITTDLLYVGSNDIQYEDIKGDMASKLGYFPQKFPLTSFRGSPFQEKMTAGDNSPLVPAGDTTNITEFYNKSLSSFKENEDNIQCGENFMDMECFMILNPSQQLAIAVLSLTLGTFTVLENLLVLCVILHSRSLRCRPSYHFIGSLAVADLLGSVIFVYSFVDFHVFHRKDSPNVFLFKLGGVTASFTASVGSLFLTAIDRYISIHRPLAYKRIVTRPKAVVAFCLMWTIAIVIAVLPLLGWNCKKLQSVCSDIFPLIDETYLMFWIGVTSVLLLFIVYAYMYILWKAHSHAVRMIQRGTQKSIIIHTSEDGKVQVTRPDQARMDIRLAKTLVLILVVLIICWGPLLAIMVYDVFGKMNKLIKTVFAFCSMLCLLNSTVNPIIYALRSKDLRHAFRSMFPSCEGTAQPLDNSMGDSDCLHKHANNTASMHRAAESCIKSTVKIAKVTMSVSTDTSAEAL
T1 sequence (P47746 whole entry): as above
Chain of CB1 receptor (Homo sapiens, UniProt P21554) (P21554 whole entry): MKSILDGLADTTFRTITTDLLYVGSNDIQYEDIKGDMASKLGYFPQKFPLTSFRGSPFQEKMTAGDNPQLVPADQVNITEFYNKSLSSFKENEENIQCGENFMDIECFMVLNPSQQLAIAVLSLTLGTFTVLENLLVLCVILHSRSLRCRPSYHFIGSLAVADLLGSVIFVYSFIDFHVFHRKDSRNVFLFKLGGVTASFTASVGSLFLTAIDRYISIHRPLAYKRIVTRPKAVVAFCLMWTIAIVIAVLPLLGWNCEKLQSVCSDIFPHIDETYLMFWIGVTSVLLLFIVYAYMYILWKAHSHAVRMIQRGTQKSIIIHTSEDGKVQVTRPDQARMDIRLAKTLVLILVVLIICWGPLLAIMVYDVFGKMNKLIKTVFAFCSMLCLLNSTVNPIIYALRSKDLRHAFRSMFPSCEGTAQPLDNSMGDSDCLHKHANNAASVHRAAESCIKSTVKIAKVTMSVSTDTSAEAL

SMILES | Ki [1] | Function Mouse Brain [35S]GTPγS Alone ([2]; compound alone) | pKi [1] | other results
Cc1c(C(=O)c2cccc(C(F)(F)F)c2)nn(-c2ccc(Cl)cc2Cl)c1-c1ccc(Cl)cc1 [ABD449] | – | – | 7.19 | Function Mouse Brain [35S]GTPγS Alone [2]: Neutral antagonist
COc1ccc(C(=O)c2nn(-c3ccc(Cl)cc3Cl)c(-c3ccc(Br)cc3)c2C)cc1 [ABD459] | 8.6 nM | Neutral antagonist | – | –
Cc1c(C(=O)NN2CCCCC2)nn(-c2ccc(Cl)cc2Cl)c1-c1ccc(Cl)cc1 [SR141716A, N-(piperidin-1-yl)-5-(4-chlorophenyl)-1-(2,4-dichlorophenyl)-4-methyl-1H-pyrazole-3-carboxamide] | – | – | – | Body weight lost each year [7]: 5-10%; First year drop-out rate due to side effects [7]: 40-50%
Cc1c(C(=O)CC2CCCCC2)nn(-c2ccc(Cl)cc2Cl)c1-c1ccc(Br)cc1 [ABD399] | – | Neutral antagonist | 7.91 | Effect on [35S]GTPγS binding, compound alone [3]: no reduction; Shift in the log concentration response curve for CP55940, [35S]GTPγS [4]: right-ward shift; Shift in the log concentration response curve for CP55940, vas deferens contraction [5]: right-ward shift; Effect on electrically-evoked contractions of isolated mouse vas deferens [6]: neither inhibited nor significantly enhanced
COc1cccc(C(=O)c2nn(-c3ccc(Cl)cc3Cl)c(-c3ccc(Br)cc3)c2C)c1 [ABD438] | – | – | 8.11 | Function Mouse Brain [35S]GTPγS Alone [2]: Neutral antagonist
Cc1c(C(O)CC2CCCCC2)nn(-c2ccc(Cl)cc2Cl)c1-c1ccc(Br)cc1 (stereo not drawn) [ABD402, 1-[5-(4-Bromophenyl)-1-(2,4-dichlorophenyl)-4-methylpyrazol-3-yl]-2-cyclohexylethanol] | – | Neutral antagonist | 7.49 | Effect on [35S]GTPγS binding, compound alone [3]: no reduction; Shift in the log concentration response curve for CP55940, [35S]GTPγS [4]: right-ward shift; Shift in the log concentration response curve for CP55940, vas deferens contraction [5]: right-ward shift; Effect on electrically-evoked contractions of isolated mouse vas deferens [6]: neither inhibited nor significantly enhanced
Cc1cccc(CC(=O)c2nn(-c3ccc(Cl)cc3Cl)c(-c3ccc(Cl)cc3)c2C)c1 [ABD434] | – | – | 8.13 | Function Mouse Brain [35S]GTPγS Alone [2]: Neutral antagonist
Cc1ccc(C(=O)c2nn(-c3ccc(Cl)cc3Cl)c(-c3ccc(Cl)cc3)c2C)cc1C [ABD437] | – | – | 7.85 | Function Mouse Brain [35S]GTPγS Alone [2]: Neutral antagonist

Continued, in another order:

Ki [1] | Function Mouse Brain [35S]GTPγS Alone ([2]; compound alone) | SMILES | pKi [1] | other results
27.1 nM | Neutral antagonist | Cc1ccc(CC(=O)c2nn(-c3ccc(Cl)cc3Cl)c(-c3ccc(Br)cc3)c2C)cc1 [ABD440] | – | –
26.7 nM | Neutral antagonist | Cc1c(C(=O)c2cccc(OC(F)(F)F)c2)nn(-c2ccc(Cl)cc2Cl)c1-c1ccc(Cl)cc1 [ABD454] | – | –
24.2 nM | Neutral antagonist | Cc1c(C(=O)Cc2ccccc2)nn(-c2ccc(Cl)cc2Cl)c1-c1ccc(Cl)cc1 [ABD406] | – | Effect on [35S]GTPγS binding, compound alone [3]: no reduction; Shift in the log concentration response curve for CP55940, [35S]GTPγS [4]: right-ward shift; Shift in the log concentration response curve for CP55940, vas deferens contraction [5]: right-ward shift; Effect on electrically-evoked contractions of isolated mouse vas deferens [6]: neither inhibited nor significantly enhanced
7.15 nM | Neutral antagonist | Cc1c(C(=O)Cc2ccc(F)cc2)nn(-c2ccc(Cl)cc2Cl)c1-c1ccc(Cl)cc1 [ABD436] | – | –
13.8 nM | Neutral antagonist | Cc1c(C(=O)c2cccc(F)c2)nn(-c2ccc(Cl)cc2Cl)c1-c1ccc(Cl)cc1 [ABD453] | – | –
63.2 nM | Neutral antagonist | Cc1c(C(=O)c2ccc(F)cc2)nn(-c2ccc(Cl)cc2Cl)c1-c1ccc(Cl)cc1 [ABD450] | – | –
3.78 nM | Neutral antagonist | Cc1c(C(=O)CC2CCCCC2)nn(-c2ccc(Cl)cc2Cl)c1-c1ccc(Cl)cc1 [ABD395] | – | Effect on [35S]GTPγS binding, compound alone [3]: only a small increase; Shift in the log concentration response curve for CP55940, [35S]GTPγS [4]: right-ward shift; Shift in the log concentration response curve for CP55940, vas deferens contraction [5]: right-ward shift; Effect on electrically-evoked contractions of isolated mouse vas deferens [6]: neither inhibited nor significantly enhanced
19.7 nM | Neutral antagonist | COc1cccc(CC(=O)c2nn(-c3ccc(Cl)cc3Cl)c(-c3ccc(Br)cc3)c2C)c1 [ABD439] | – | –
